Measurements reported in ChEMBL document CHEMBL3804817, “Development of novel bis-naphthalimide derivatives and their anticancer properties” (Medchemcomm, 2016).
One block for each compound: values may come before it. Activity calls are given as the source filed them. The calls are words filed in the database; no cut-off is given here.

Tests used:
[1] = tested on: HeLa; assay: Cytotoxicity against human HeLa cells after 48 hrs by MTT assay; type: functional, cell-based
[2] = tested on: MCF7; assay: Cytotoxicity against human MCF7 cells after 48 hrs by MTT assay; type: functional, cell-based; conditions: MCF7, 48 h
[3] = Cytotoxicity against human SGC7901 cells after 48 hrs by MTT assay; type: functional, cell-based; conditions: SGC-7901, 48 h
[4] = tested on: A549; assay: Cytotoxicity against human A549 cells after 48 hrs by MTT assay; type: functional, cell-based; conditions: A549, 48 h
[5] = tested on: HeLa; assay: Cell cycle arrest in human HeLa cells assessed as increase in accumulation at S phase by flow cytometry; type: functional, cell-based
[6] = tested on: HeLa; assay: Cell cycle arrest in human HeLa cells assessed as decrease in accumulation at G0/G1 phase phase by flow cytometry; type: functional, cell-based
[7] = tested on: Mus musculus; assay: Toxicity in Balb/c mouse assessed as decrease in number of WBC at 5 to 20 mg/kg, iv measured after 24 to 96 hrs; type: organism-based; conditions: in vivo
[8] = tested on: HeLa; assay: Cell cycle arrest in human HeLa cells assessed as accumulation at G1/G0 phase at 1 to 10 uM after 48 hrs by flow cytometry; type: functional
[9] = tested on: Calf thymus DNA; assay: Induction of DNA intercalation of calf thymus DNA assessed as reduction in intensity of absorption using 0 to 6 x 10^-5 M calf thymus DNA by UV spectrophotometry; type: nucleic-acid assay; conditions: Bos taurus
[10] = tested on: Calf thymus DNA; assay: Induction of DNA intercalation of calf thymus DNA at 1 x 10^-5 M measured at 530 nm by fluorescence spectrophotometry; type: nucleic-acid assay; conditions: Bos taurus
[11] = tested on: Calf thymus DNA; assay: Induction of DNA intercalation of calf thymus DNA assessed as increase in intensity of absorption using > 6 x 10^-5 M calf thymus DNA by UV spectrophotometry; type: nucleic-acid assay; conditions: Bos taurus
[12] = tested on: Calf thymus DNA; assay: Induction of DNA intercalation of calf thymus DNA assessed as increase in fluorescence intensity by fluorescence spectrophotometry; type: nucleic-acid assay; conditions: Bos taurus
[13] = tested on: Calf thymus DNA; assay: Induction of DNA intercalation of calf thymus DNA assessed as hypsochromic shift by fluorescence spectrophotometry (reference value: 530 nanometer); type: nucleic-acid assay; conditions: Bos taurus
[14] = tested on: Calf thymus DNA; assay: Induction of DNA intercalation of calf thymus DNA assessed as binding constant by fluorescence spectrophotometry; type: nucleic-acid assay; conditions: Bos taurus
[15] = tested on: Calf thymus DNA; assay: Induction of DNA intercalation of calf thymus DNA assessed as increase in intensity of positive band at 275 nm at 2 x 10^-5 M by circular dichroism spectroscopy; type: nucleic-acid assay; conditions: Bos taurus
[16] = tested on: Calf thymus DNA; assay: Induction of DNA intercalation of calf thymus DNA assessed as increase in intensity of negative band at 245 nm at 2 x 10^-5 M by circular dichroism spectroscopy; type: nucleic-acid assay; conditions: Bos taurus
[17] = tested on: Calf thymus DNA; assay: Induction of DNA intercalation of calf thymus DNA measured at 320 to 520 nm at 2 x 10^-5 M by circular dichroism spectroscopy; type: nucleic-acid assay; conditions: Bos taurus
[18] = tested on: Calf thymus DNA; assay: Induction of DNA intercalation of calf thymus DNA assessed as change in melting temperature at 5 x 10^-6 M by thermal denaturation analysis; type: nucleic-acid assay; conditions: Bos taurus
[19] = tested on: HeLa; assay: Binding affinity to DNA in human HeLa cells at 2 uM after 12 hrs by confocal microscopy; type: cell-based
[20] = tested on: HeLa; assay: Induction of apoptosis in human HeLa cells assessed as early apoptotic cells at 1 uM by Annexin V-FITC/propidium iodide staining-based flow cytometry (reference value: 0.05%); type: functional
[21] = tested on: HeLa; assay: Induction of apoptosis in human HeLa cells assessed as early apoptotic cells at 2.5 uM by Annexin V-FITC/propidium iodide staining-based flow cytometry (reference value: 0.05%); type: functional
[22] = tested on: HeLa; assay: Induction of apoptosis in human HeLa cells assessed as early apoptotic cells at 5 uM by Annexin V-FITC/propidium iodide staining-based flow cytometry (reference value: 0.05%); type: functional
[23] = tested on: HeLa; assay: Induction of apoptosis in human HeLa cells assessed as early apoptotic cells at 10 uM by Annexin V-FITC/propidium iodide staining-based flow cytometry (reference value: 0.05%); type: functional
[24] = tested on: HeLa; assay: Induction of apoptosis in human HeLa cells assessed as late apoptotic cells at 1 uM by Annexin V-FITC/propidium iodide staining-based flow cytometry (reference value: 0.02%); type: functional
[25] = tested on: HeLa; assay: Induction of apoptosis in human HeLa cells assessed as late apoptotic cells at 2.5 uM by Annexin V-FITC/propidium iodide staining-based flow cytometry (reference value: 0.02%); type: functional
[26] = tested on: HeLa; assay: Induction of apoptosis in human HeLa cells assessed as late apoptotic cells at 5 uM by Annexin V-FITC/propidium iodide staining-based flow cytometry (reference value: 0.02%); type: functional
[27] = tested on: HeLa; assay: Induction of apoptosis in human HeLa cells assessed as late apoptotic cells at 10 uM by Annexin V-FITC/propidium iodide staining-based flow cytometry (reference value: 0.02%); type: functional
[28] = tested on: HeLa; assay: Induction of lysosome membrane permeabilization in human HeLa cells by […] (reference value: 1.69%); type: functional
[29] = tested on: HeLa; assay: Cell cycle arrest in human HeLa cells assessed as accumulation at G2/M phase at 1 to 10 uM after 48 hrs by flow cytometry; type: functional
[30] = tested on: HeLa; assay: Cell cycle arrest in human HeLa cells assessed as accumulation at S phase at 1 to 10 uM after 48 hrs by flow cytometry; type: functional
[31] = tested on: Mus musculus; assay: Toxicity in Balb/c mouse assessed as change in RBC at 5 to 20 mg/kg, iv measured after 24 to 96 hrs; type: organism-based; conditions: in vivo
[32] = tested on: Mus musculus; assay: Toxicity in Balb/c mouse assessed as increase in number of platelets at 5 to 20 mg/kg, iv measured after 24 to 96 hrs; type: organism-based; conditions: in vivo
[33] = tested on: Mus musculus; assay: Cardiotoxicity in Balb/c mouse assessed as increase in AST level at 5 to 20 mg/kg, iv measured after 24 hrs; type: toxicity, organism-based; conditions: in vivo
[34] = tested on: Mus musculus; assay: Cardiotoxicity in Balb/c mouse assessed as increase in LDH level at 5 to 20 mg/kg, iv measured after 24 hrs; type: toxicity, organism-based; conditions: in vivo
[35] = tested on: Mus musculus; assay: Cardiotoxicity in Balb/c mouse assessed as increase in CK level at 5 to 20 mg/kg, iv measured after 24 hrs; type: toxicity, organism-based; conditions: in vivo

SMILES: CN(CCCN1C(=O)c2cccc3c(N4CCC[C@@H]4CO)ccc(c23)C1=O)CCCN1C(=O)c2cccc3c(N4CCC[C@@H]4CO)ccc(c23)C1=O
IC50 [1]: > 50 µM
IC50 [2]: > 50 µM
IC50 [3]: 4.46 µM
IC50 [4]: 4.71 µM

SMILES: CN(C)CCN1C(=O)c2cccc3cc(N)cc(c23)C1=O [AMONAFIDE]
IC50 [1]: 4.36 µM
IC50 [2]: 8.02 µM
IC50 [3]: 5.32 µM
IC50 [4]: 1.59 µM
Activity [5]: Dose-dependent effect
inhibition [6]: Dose-dependent effect

Activity [9]: Active
Activity [10]: Active
Activity [11]: Active
Activity [12]: Active
Activity [13]: 520 nm
K [14]: 1.2 ×10⁵ /M
Activity [15]: Active
Activity [16]: Active
Activity [17]: Active
ΔTm [18]: 8 °C
SMILES: CN(CCCN1C(=O)c2cccc3c(N4CCN(CCO)CC4)ccc(c23)C1=O)CCCN1C(=O)c2cccc3c(N4CCN(CCO)CC4)ccc(c23)C1=O
Activity [7]: Non-toxic
Activity [8]: 57.79%
IC50 [1]: 2.31 µM
IC50 [2]: 2.94 µM
IC50 [3]: 0.88 µM
IC50 [4]: 1.21 µM
Activity [19]: Active
Activity [20]: 11.72%
Activity [21]: 15.9%
Activity [22]: 16.41%
Activity [23]: 41.51%
Activity [24]: 2.09%
Activity [25]: 3.21%
Activity [26]: 10.4%
Activity [27]: 51.22%
Activity [28]: 99.65%
Activity [29]: 3.1%
Activity [30]: 29.79%
Activity [31]: Non-toxic
Activity [32]: Non-toxic
Activity [33]: Non-toxic
Activity [34]: Non-toxic
Activity [35]: Non-toxic

SMILES: CN(CCCN1C(=O)c2cccc3c(N4CCC(CCO)CC4)ccc(c23)C1=O)CCCN1C(=O)c2cccc3c(N4CCC(CCO)CC4)ccc(c23)C1=O
IC50 [1]: > 50 µM
IC50 [2]: > 50 µM
IC50 [3]: 3.63 µM
IC50 [4]: 3.2 µM

SMILES: CN(CCCN1C(=O)c2cccc3c(N4CCC[C@H]4CO)ccc(c23)C1=O)CCCN1C(=O)c2cccc3c(N4CCC[C@H]4CO)ccc(c23)C1=O
IC50 [1]: > 50 µM
IC50 [2]: 9.07 µM
IC50 [3]: 2.3 µM
IC50 [4]: 3.05 µM

SMILES: CN(CCCN1C(=O)c2cccc3c(N4CC[C@@H](O)C4)ccc(c23)C1=O)CCCN1C(=O)c2cccc3c(N4CC[C@@H](O)C4)ccc(c23)C1=O
IC50 [1]: 3.65 µM
IC50 [2]: 32.9 µM
IC50 [3]: 23.2 µM
IC50 [4]: 1.59 µM

SMILES: CN(CCCN1C(=O)c2cccc3c(N4CC[C@H](O)C4)ccc(c23)C1=O)CCCN1C(=O)c2cccc3c(N4CC[C@H](O)C4)ccc(c23)C1=O
IC50 [1]: 1.05 µM
IC50 [2]: 14 µM
IC50 [3]: 2.47 µM
IC50 [4]: 0.6 µM
